Data published in patent US12473291B2 (priority 2019, dated 2025).
Structures can show the parent of a compound that is named as a salt. Where two headings read alike, the source gives them in different places.

Tests used:
KM mice = assay: animal or person; type: in vivo
SD rats = assay: animal or person; type: in vivo
[1] = KM mice, single tail vein injection at 2×ED50, time from disappearance to recovery of righting reflex
[2] = KM mice, single tail vein injection at 2×ED50, time from recovery of righting reflex to free crawling
[3] = Mus musculus, KM mice (male, 18-22 g), injection via the tail vein, disappearance of righting reflex, read-out: ED50
[4] = Rattus norvegicus, SD rats (male, 220-300 g), injection via the tail vein, disappearance of righting reflex, read-out: ED50
[5] = SD rats, single tail vein injection at 2×ED50, time from disappearance to recovery of righting reflex
[6] = SD rats, single tail vein injection at 2×ED50, time from recovery of righting reflex to free crawling

Row | SMILES | ED50 (KM mice; Mus musculus) | 2ED50 duration (KM mice; mouse, in vivo) | 2ED50 recovery time (KM mice; mouse, in vivo) | Quality of recovery (KM mice; mouse, in vivo) | ED50 (SD rats; Rattus norvegicus) | 2ED50 duration (SD rats; rat, in vivo) | 2ED50 recovery time (SD rats; rat, in vivo) | Quality of recovery (SD rats; rat, in vivo) | 2ED50 duration (KM mice; [1]) | 2ED50 recovery time (KM mice; [2]) | Quality of recovery (KM mice; KM mice, tail vein injection) | ED50 (KM mice; [3]) | ED50 (SD rats; [4]) | 2ED50 duration (SD rats; [5]) | 2ED50 recovery time (SD rats; [6]) | Quality of recovery (SD rats; SD rats, tail vein injection) | ED50 (KM mice; KM mice (male, 18-22 g), injection via the tail vein, disappearance of righting reflex) | ED50 (SD rats; SD rats (male, 220-300 g), injection via the tail vein, disappearance of righting reflex)
1 | COC(=O)OCOC(=O)CC[C@@H]1N=C(c2ccccn2)c2cc(Cl)c(F)cc2-n2c(C)cnc21 [Example 70, ((Methoxycarbonyl)oxy)methyl 3-((4S)-8-chloro-9-fluoro-1-methyl-6-(pyridine-2-yl)-4H-benzo[f]imidazo [1,2-a][1,4]diaza-4-ylpropionate borate] | 26.7 mg/kg | 3.27 min | 2.54 min | +++ (key: “+” means <1 mm; “++” means 1-3 min; “+++” means 3-5 min; “++++” means 5-10 min; “+++++” means >10 mm) | 4.6 mg/kg | 3.56 min | 2.57 min | +++ (key: “+” means <1 mm; “++” means 1-3 min; “+++” means 3-5 min; “++++” means 5-10 min; “+++++” means >10 mm) | – | – | – | – | – | – | – | – | – | –
2 | CCOC(=O)OCOC(=O)CC[C@@H]1N=C(c2ccccn2)c2cc(Cl)cc(F)c2-n2c(C)cnc21 [Example 71, ((Ethoxycarbonyl)oxy)methyl 3-((4S)-8-chloro-10-fluoro-1-methyl-6-(pyridine-2-yl)-4H-benzo[f]imidazo [1,2-a][1,4]diaza-4-yl)propionate 2-hydroxypropane-1,2,3-tricarboxylate] | 28.2 mg/kg | 3.09 min | 2.36 min | ++ (key: “+” means <1 mm; “++” means 1-3 min; “+++” means 3-5 min; “++++” means 5-10 min; “+++++” means >10 mm) | 4.8 mg/kg | 3.21 min | 2.36 min | + (key: “+” means <1 min; “++” means 1-3 min; “+++” means 3-5 min; “++++” means 5-10 min; “+++++” means >10 min) | – | – | – | – | – | – | – | – | – | –
3 | CCCOC(=O)OCOC(=O)CC[C@@H]1N=C(c2ccccn2)c2c(ccc(Br)c2F)-n2c(C)cnc21 [Example 72, ((Propoxycarbonyl)oxy)methyl 3-((4S)-8-bromo-7-fluoro-1-methyl-6-(pyridine-2-yl)-4H-benzo[f]imidazo [1,2-a][1,4]diaza-4-ylpropionate sulfonate] | – | – | – | – | – | – | – | – | 3.12 min | 2.48 min | +++ (“+++” means 3-5 min) | 32.5 mg/kg | 4.9 mg/kg | 4.01 min | 2.43 min | ++ (“++” means 1-3 min) | – | –
4 | COC(=O)C(OC(=O)CC[C@@H]1N=C(c2ccccn2)c2cc(Br)c(OC(F)(F)F)c(C)c2-n2c(C)cnc21)C1CCSC1 (stereo partly drawn) [Example 74, 2-methoxy-2-oxo-1-(tetrahydrothiophene-3-yl)ethyl 3-((4S)-8-bromo-1,10-dimethyl-6-(pyridine-2-yl)-9-(trifluoromethoxy)-4H-benzo[f]imidazo[1,2-a][1,4]diazapin-4-yl)propionate stearate] | – | – | – | – | – | – | – | – | 3.42 min | 2.17 min | ++ (“++” means 1-3 min) | 24.5 mg/kg | 5.7 mg/kg | 2.67 min | 2.54 min | +++ (“+++” means 3-5 min) | – | –
5 | CCCOC(=O)C1(OC(=O)CC[C@@H]2N=C(c3ccccn3)c3c(cc(OC(F)(F)F)c(Cl)c3C)-n3c(C)cnc32)CC1 [Example 75] | – | – | – | – | – | – | – | – | 3.53 min | 1.58 min | +++ (“+++” means 3-5 min) | 29.1 mg/kg | 5.8 mg/kg | 2.26 min | 2.15 min | +++ (“+++” means 3-5 min) | – | –
6 | Cc1cc2c(c(C)c1C)C(c1ccccn1)=N[C@@H](CCC(=O)OCC(=O)OC(C)C)c1ncc(C)n1-2 [Example 76, 2-Isopropoxy-2-oxoethyl-3-(((4S)-1,7,8,9-tetramethyl-6-(pyridine-2-yl)-4H-benzo[f]imidazo[1,2-a][1,4]diaza-4-ylpropionate phosphate] | – | – | – | – | – | – | – | – | 3.28 min | 2.49 min | ++++ (“++++” means 5-10 min) | 27.8 mg/kg | 6.3 mg/kg | 2.47 min | 2.23 min | +++ (“+++” means 3-5 min) | – | –
7 | CCOC(=O)C(C)(C)OC(=O)CC[C@@H]1N=C(c2ccccn2)c2c(cc(C)c(Cl)c2C)-n2c(C)cnc21 [Example 77, Ethyl 2-((3-((4S)-8-chloro-1,7,9-trimethyl-6-(pyridine-2-yl)-4H-benzo[f]imidazo[1,2-a][1,4]diazapin-4-yl)propionyl)oxy)-2-methylpropionate 2-hydroxy-1-naphthoate] | – | – | – | – | – | – | – | – | 3.28 min | 2.39 min | +++ (“+++” means 3-5 min) | 30.2 mg/kg | 6.1 mg/kg | 2.38 min | 2.47 min | +++ (“+++” means 3-5 min) | – | –
8 | Cc1c(Cl)c(C(F)(F)F)cc2c1C(c1ccccn1)=N[C@@H](CCC(=O)OC(C)C(=O)OC(C)C)c1ncc(C)n1-2 (stereo partly drawn) [Example 78, 1-Isopropoxy-1-oxopropane-2-yl3-((4S)-8-chloro-1,7-dimethyl-6-(pyridine-2-yl)-9-(trifluoromethyl)-4H-benzo[f]imidazo[1,2-a][1,4]diaza-4-ylpropionate nicotinate] | 28.2 mg/kg | 3.39 min | 1.36 min | ++ (key: “+” means <1 mm; “++” means 1-3 min; “+++” means 3-5 min; “++++” means 5-10 min; “+++++” means >10 mm) | 6.2 mg/kg | 2.55 min | 2.38 min | ++ (key: “+” means <1 mm; “++” means 1-3 min; “+++” means 3-5 min; “++++” means 5-10 min; “+++++” means >10 mm) | – | – | – | – | – | – | – | – | – | –
9 | COC(=O)C1(OC(=O)CC[C@@H]2N=C(c3ccccn3)c3cc(Cl)c(C)c(C)c3-n3c(C)cnc32)CC1 [Example 79, 1-((3-((4S)-8-chloro-1,9,10-trimethyl-6-(pyridine-2-yl)-4H-benzo[f]imidazo[1,2-a][1,4]diaza-4-yl)propionyl)oxy) cyclopropane-1-carboxylate 1-naphthoate] | – | – | – | – | – | – | – | – | 3.45 min | 1.38 min | +++ (“+++” means 3-5 min) | 31.3 mg/kg | 6.6 mg/kg | 2.48 min | 2.19 min | +++ (“+++” means 3-5 min) | – | –
10 | COc1cc(C)cc2c1-n1c(C)cnc1[C@H](CCC(=O)OC1(C(=O)OC(C)C)CC1)N=C2c1ccccn1 [Example 80, Isopropyl 1-((3-((4S)-10-methoxy-1,8-dimethyl-6-(pyridine-2-yl)-4H-benzo[f]imidazo[1,2-a][1,4]diaza-4-yl)propionyl)oxy) cyclopropane-1-carboxylate methyl sulfate] | – | – | – | – | – | – | – | – | 3.56 min | 2.01 min | +++ (“+++” means 3-5 min) | 30.9 mg/kg | 6.7 mg/kg | 2.36 min | 2.18 min | ++ (“++” means 1-3 min) | – | –
11 | CCOC(=O)C(C)OC(=O)CC[C@@H]1N=C(c2ccccn2)c2cc(C)c(OC)cc2-n2c(C)cnc21 (stereo partly drawn) [Example 81, 1-Ethoxy-1-oxopropane-2-yl3-((4S)-9-methoxy-1,8-dimethyl-6-(pyridine-2-yl)-4H-benzo[f]imidazo[1,2-a][1,4]diaza-4-ylpropionate malonate] | – | – | – | – | – | – | – | – | 3.49 min | 2.43 min | +++ (“+++” means 3-5 min) | 31.1 mg/kg | 6.2 mg/kg | 2.43 min | 2.09 min | +++ (“+++” means 3-5 min) | – | –
12 | COC(=O)C(OC(=O)CC[C@@H]1N=C(c2ccccn2)c2cc(Cl)cc(OC(F)(F)F)c2-n2c(C)cnc21)C1CCCCCCCCC1 (stereo partly drawn) [Example 82] | – | – | – | – | – | – | – | – | 3.54 min | 2.13 min | +++ (“+++” means 3-5 min) | 29.8 mg/kg | 5.8 mg/kg | 2.15 min | 2.10 min | ++ (“++” means 1-3 min) | – | –
13 | COC1N(C)CC(CC(OC(=O)CC[C@@H]2N=C(c3ccccn3)c3cc(OC(F)(F)F)cc(C)c3-n3c(C)cnc32)OC(=O)OC(C(C)C)C(C)C)CN1C (stereo partly drawn) [Example 83] | – | – | – | – | – | – | – | – | 3.26 min | 2.46 min | +++ (“+++” means 3-5 min) | 30.1 mg/kg | 6.1 mg/kg | 2.09 min | 2.09 min | +++ (“+++” means 3-5 min) | – | –
14 | C/C=C/C1CC(OCOC(=O)COC(=O)CC[C@@H]2N=C(c3ccccn3)c3cc(Br)c(Cl)cc3-n3c(C)cnc32)C(Br)CC1C(F)(F)F (stereo partly drawn) [Example 84, 2-(((2-Bromo-5-((E)-propan-1-en-1-yl)-4-(trifluoromethyl)cyclohexyl)oxy)methoxy)-2-oxoethyl-3-((4S)-8-bromo-9-chloro-1-methyl-6-(pyridine-2-yl)-4H-benzo[f]imidazo[1,2-a][1,4]diaza-4-yl)propionate] | – | – | – | – | – | – | – | – | 3.16 min | 2.17 min | +++ (“+++” means 3-5 min) | 28.8 mg/kg | 6.23 mg/kg | 2.18 min | 1.58 min | ++ (“++” means 1-3 min) | – | –
15 | COC(=O)CC[C@@H]1N=C(c2ccccn2)c2cc(Br)ccc2-n2c(C)cnc21 [Remimazolam, reference compound] | – | – | – | – | – | – | – | – | 8.58 min | 5.49 min | +++++ (“+++++” means >10 mm) | – | – | 7.58 min | 6.46 min | +++++ (“+++++” means >10 min) | 40 mg/kg | 8.9 mg/kg
